The values that follow come from ChEMBL document CHEMBL3351929, “Halenaquinone inhibits RANKL-induced osteoclastogenesis” (Bioorg Med Chem Lett, 2014).

The subject of assay [1] is RAW264. Kind of assay: Inhibition of sRANKL-induced TRAP activity in mouse RAW264 cells at 20 uM by p-nitrophenolate release based TRAP assay. In kind it is functional, cell-based.
Assay [2] is described as follows: Inhibition of sRANKL-induced TRAP activity in mouse RAW264 cells by p-nitrophenolate release based TRAP assay. In kind it is functional, cell-based. The note with it: RAW264.7.
Assay [3] relates to RAW264. Kind of assay: Inhibition of sRANKL-induced osteoclastogenesis in mouse RAW264 cells assessed as reduction in TRAP-positive multinuclear osteoclasts formation at 20 uM incubated for 4 days by TRAP assay. In kind it is functional, cell-based.
A short description of assay [4]: Inhibition of chymotrypsin-like activity of proteasome in rat liver using Suc-Leu-Leu-Val-Tyr-MCA fluorogenic substrate.
The species entered for assay [5] is Mus musculus. Kind of assay: Inhibition of sRANKL-induced […] degradation in mouse RAW264 cells at 20 uM pre-treated for 2 hrs before sRANKL stimulation measured 15 mins after sRANKL stimulation by Western blotting method. In kind it is cell-based. On the technique in general: Immunoblotting shows a protein as a band on a membrane.
Assay [6] is filed under the species Mus musculus. Kind of assay: Inhibition of sRANKL-induced […] degradation in mouse RAW264 cells at 10 to 50 uM pre-treated for 2 hrs before sRANKL stimulation measured 15 mins after sRANKL stimulation by Western blotting method. In kind it is cell-based.
The species entered for assay [7] is Mus musculus. Kind of assay: Inhibition of sRANKL-induced AKT phosphorylation in mouse RAW264 cells at 20 uM pre-treated for 2 hrs before sRANKL stimulation measured 15 mins after sRANKL stimulation by Western blotting method. It is filed as cell-based.

The structures appear in SMILES notation. pIC50: −log10 of the molar value. Active and inactive are the calls of the source. The calls are words filed in the database; no cut-off is given here.

Regarding `C[C@@]12CCC(=O)c3coc(c31)C(=O)c1cc3c(cc12)C(=O)C=CC3=O` [HELENAQUINONE], the inhibition result with RAW264 [1], in the assay on RAW264 [3], in the assay listed under Mus musculus [5], in the assay filed under Mus musculus [6] and in the assay filed under Mus musculus [7] was “Active” each time. The pIC50 in assay [2] is 5.70; in assay [4] it was 6.22.

One may read the pIC50 as the negative decadic logarithm of the IC50, by convention in mol/L. High values mean a small IC50, low ones a large IC50.
